The record followed here is patent US8686044B2, “Amide derivative, pest control agent containing the amide derivative, and use of the amide derivative” (Mitsui Chemicals Agro, Inc., priority 2008, dated 2014).

Like-named read-outs stand apart in the source and are kept apart here.

Common to all, as to assay type: in vivo
The subject of one assay is Spodoptera litura. Nature of the assay: Pesticidal test against Spodoptera litura (cabbage leaf dip). Conditions: foliar, 144 h, concentration 1 ppm, 2-stage larvae, examined after 6 days, 25° C., read-out: pesticidal rate. The method, boiled down:
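Cabbage leaf pieces dipped 30 seconds in compound solution at a predetermined concentration and air-dried, then offered to second-stage larvae, five per group in two replicates. Held at 25° C. Living and dead larvae counted after 6 days.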

A further assay relates to Plutella xylostella. Nature of the assay: Pesticidal test against Plutella xylostella (cabbage leaf dip). As to conditions: foliar, 144 h, concentration 1 ppm, 2-stage larvae, examined after 6 days, 25° C., read-out: pesticidal rate. Put shortly:
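Cabbage leaf pieces dipped 30 s in test solution at a predetermined concentration, air-dried, then offered to 2nd-instar larvae, five per group in duplicate. Held at 25° C; living and dead larvae counted after 6 days.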

In another assay the test system is Adoxophyes honmai. The assay can be described thus: Pesticidal test against Adoxophyes honmai (artificial feed dip). As to conditions: 144 h, concentration 10 ppm, 2-stage larvae, examined after 6 days, 25° C., read-out: pesticidal rate. The method, boiled down:
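Thin artificial feed slices dipped 30 s in test solution at a predetermined concentration, air-dried, then offered to 2nd-stage larvae. Kept at 25° C; live and dead larvae counted after 6 days. Five larvae per group, two replicates.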

For a further assay, the system named is Choristoneura magnanima. Nature of the assay: Pesticidal test against Choristoneura magnanima (artificial feed dip). Conditions: 144 h, concentration 1 ppm, 2-stage larvae, examined after 6 days, 25° C., read-out: pesticidal rate. Put shortly: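 Thin artificial feed slices dipped 30 s in compound solution at a set concentration, air-dried, then offered to 2nd-stage larvae held at 25° C. Living and dead larvae counted after 6 days; five larvae per group, two replicates.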

The subject of a further assay is Helicoverpa armigera. Nature of the assay: Pesticidal test against Helicoverpa armigera (cabbage leaf disk dip). Conditions: foliar, 72 h, concentration 10 ppm, 2-stage larvae, examined after 3 days, 25° C., read-out: pesticidal rate. Put shortly: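 Cabbage leaf disks were dipped for 30 s in test solution at a set concentration and air-dried. Second-instar larvae were placed one per hole and held at 25 °C, with live and dead counts taken after 3 days. Five larvae per group were tested in two replicates.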

In another assay the test system is Laodelphax striatellus. Nature of the assay: Pesticidal test against Laodelphax striatellus (rice seedling spray). As to conditions: 144 h, concentration 100 ppm, 3-stage larvae, examined after 6 days, 25° C., read-out: pesticidal rate. The method, boiled down: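 Rice seedlings sprayed with 2.5 ml acetone solution of compound at a predetermined concentration, air-dried, then infested with third-stage Laodelphax striatellus larvae in capped water-containing tubes at 25 °C. Living and dead insects counted after 6 days; ten larvae per group, two replicates.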

The subject of another assay is Musca domestica. Nature of the assay: Pesticidal test against Musca domestica (petri dish dry film). As to conditions: 24 h, concentration 100 ppm, female adults, examined after 1 day, 25° C., read-out: pesticidal rate. The method, boiled down:
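Dry film from 1 ml acetone solution of compound at a predetermined concentration, air-dried in a 9 cm petri dish; female adult flies released and dish capped. Held at 25° C; living and dead counted after 1 day. Five insects per group, two replicates.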

For the next assay, the system named is Blattella germanica. The assay can be described thus: Pesticidal test against Blattella germanica (petri dish dry film). As to conditions: 24 h, concentration 100 ppm, female adults, examined after 1 day, 25° C., read-out: pesticidal rate. The method, boiled down:
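Acetone solution of test compound at a predetermined concentration dried as a film in a 9 cm petri dish; female adult cockroaches released onto it and kept at 25° C. Living and dead counted after 1 day; five insects per group, two replicates.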

The subject of a further assay is Coptotermes formosanus. The assay can be described thus: Pesticidal test against Coptotermes formosanus (treated filter paper). As to conditions: 120 h, concentration 30 ppm, examined after 5 days of treatment, 28° C., read-out: pesticidal rate. The method, then:
Pesticidal Test against Coptotermes formosanus
20 μl of an acetone solution in which a test compound had been prepared at a predetermined concentration was added dropwise to the filter paper having a diameter of […] included in a polypropylene cup, and air-dried, and then 20 μl of water was added thereto. Coptotermes formosanus was released and the cup was capped. They were left to stand in a thermostatic chamber at 28° C., and the numbers of the living pests and the dead pests were examined after 5 days of treatment. The test was carried out with ten larvae per group in two replicates.

For assay [1], the system named is Ctenocephalides Felis. Nature of the assay: Insecticidal test for Ctenocephalides felis, Test Example 1 (dry film in glass tube, 0.5 ml, Table A4). As to conditions: for pest or weed control at 0.1 µg/mL: Ctenocephalides felis, read-out: death rate. The protocol: Insecticidal Test for Ctenocephalides Felis
0.5 ml of a solution of acetone, the active ingredient, prepared to the prescribed concentration was added dropwise to a glass tube with a flat bottom (internal diameter: 2.6 cm, bottom area: 5.3 cm^2, height: 12 cm), and the solvent was evaporated at room temperature to form a dry film of the agent on the bottom surface. About 10 adults of Ctenocephalides Felis per glass tube were added, and the adults were contact-exposed to the test compound. After 24 hours of the exposure, the conditions of the adults were examined and classified into “alive” and “dead (including a moribund condition)” to determine the death rate (in triplicate).
As the comparative compounds, the following Compounds (A), (B), and (C) disclosed in WO2009/080203, and fipronil were used.

Assay [2] relates to Ctenocephalides Felis. Described as above. Conditions: adults.
Assay [3] relates to Ctenocephalides Felis. The assay can be described thus: Insecticidal test for Ctenocephalides felis, Test Example 3 (dry film in glass tube, 0.96 ml, Table A5). Conditions: adults of Ctenocephalides felis, after 24 hours of exposure, in triplicate. The protocol: Insecticidal Test for Ctenocephalides felis
0.96 ml of a solution of acetone, the active ingredient, prepared to the prescribed concentration was added dropwise to a glass tube with a flat bottom (internal diameter: 3.6 cm, height: 12 cm), and the solvent was evaporated at room temperature to form a dry film of the agent on the bottom surface. About 10 adults of Ctenocephalides felis per glass tube were added, and they were contact-exposed to the test compound. After 24 hours of the exposure, the conditions of the adults were examined and classified into “alive” and “dead (including a moribund condition)” to determine the death rate was determined (in triplicate).
As the comparative compounds, the following Compounds (D) and (E) disclosed in WO2009/080203, and fipronil were used.

Another assay relates to Rhipicephalus sanguineus. Nature of the assay: Insecticidal test for Rhipicephalus sanguineus (treated glass petri dish, Table A6). As to conditions: adults of Rhipicephalus sanguineus, 18 hour exposure, examined after 48 hours, in single. The protocol:
Insecticidal Test for Rhipicephalus sanguineus
0.5 ml of a solution of acetone, the active ingredient, prepared to the prescribed dose was added dropwise into a glass petri dish with a diameter of 10 cm, and the acetone was evaporated at room temperature. About 10 adults of Rhipicephalus sanguineus per dish were added, and the dish was covered by another glass petri dish that was treated with the active ingredient in the same manner described above. After 18 hour exposure to the test substance, the adults were transferred into a glass petri dish that was not treated with the active ingredient. After 48 hours of the exposure, the conditions of the adults were examined and classified into “alive” and “dead (including a moribund condition)” to determine the death rate (in single).
As the comparative compounds, said Compounds (B), (C), and (D), and the following Compound (F) disclosed in WO2009/080203, and fipronil were used.

Consider `CN(C(=O)c1ccccc1)c1cccc(C(=O)Nc2c(Br)cc(C(F)(C(F)(F)F)C(F)(F)F)cc2Br)c1F` [7-1104, N-(2,6-dibromo-4-(heptafluoropropan-2-yl)phenyl)-2-fluoro-3-(N-methylbenzamide)benzamide], for which the pest or weed control at 1 ppm in the assay on Spodoptera litura, in the assay on Plutella xylostella and in the assay on Choristoneura magnanima was ≥ 70% in each case. Also, the pest or weed control at 10 ppm in the assay with Adoxophyes honmai and in the assay with Helicoverpa armigera was ≥ 70% each time. The pest or weed control at 100 ppm with Laodelphax striatellus, with Musca domestica and in the assay with Blattella germanica was ≥ 70% in each case. Further, the pest or weed control at 30 ppm in the assay with Coptotermes formosanus was ≥ 70%. Also, in the assay on Ctenocephalides Felis [1] (concentration 0.1 μg/ml, adults, after 24 hours of the exposure, in triplicate), the pest or weed control at 0.1 µg/mL is 73.3%. The “speed of effect as compared with the fipronil” value with Ctenocephalides Felis [1] (adults, compared with fipronil) is listed as “immediate effect”. Also, in the assay with Ctenocephalides Felis [2], the “effect in the examination after 12 hours of the exposure” value is recorded as “effective”.
In the case of `Cc1cc(C(F)(C(F)(F)F)C(F)(F)F)cc(C)c1NC(=O)c1cccc(NC(=O)c2cccnc2Cl)c1F` [compound (D)], the death rate was 22.0% with Ctenocephalides Felis [3] (0.3 μg/ml); 61.4% in the assay on Ctenocephalides Felis [3] (1 μg/ml); 0.0% in the assay on Rhipicephalus sanguineus (0.673 mg/m^2); 10.0% in the assay on Rhipicephalus sanguineus (2.69 mg/m^2); 50.0% in the assay on Rhipicephalus sanguineus (10.8 mg/m^2).
Consider `CCc1cc(C(F)(C(F)(F)F)C(F)(F)F)cc(C)c1NC(=O)c1cccc(NC(=O)c2ccccc2Cl)c1F` [compound (E)], for which, in the assay with Ctenocephalides Felis [3] (1 μg/ml), the death rate came out at 0.0%.
Take `N#Cc1nn(-c2c(Cl)cc(C(F)(F)F)cc2Cl)c(N)c1[S+]([O-])C(F)(F)F` (stereo not drawn) [fipronil]: the pest or weed control at 0.1 µg/mL in the assay on Ctenocephalides Felis [1] (24 h) turned out to be 92.1%. Also, the death rate in the assay with Ctenocephalides Felis [3] (0.03 μg/ml) came out at 70.0%; with Ctenocephalides Felis [3] (0.1 μg/ml), 100.0%; in the assay on Rhipicephalus sanguineus (0.0431 mg/m^2), 0.0%; in the assay on Rhipicephalus sanguineus (0.172 mg/m^2), 45.5%; in the assay on Rhipicephalus sanguineus (0.673 mg/m^2), 100.0%.
